Measurements taken from PMC9403976, “Elucidating the path to Plasmodium prolyl-tRNA synthetase inhibitors that overcome halofuginone resistance” (Nature Communications, 2022).
Values joined by “and” are separate entries in the source; they are usually repeats but may differ in a detail not shown here. Identical values can stand only once. Like-named read-outs stand apart in the source and are kept apart here.

What was measured:
[1] = tested on: P. falciparum Dd2-2D4 NCP26 selections S1-3; test: ABS growth assay on bulk populations and clones from NCP26 resistance selections S1-3; format: cell-based, Plasmodium falciparum; conditions: for Fold-change Resistance: independent experiments; for EC50: Plasmodium falciparum
P. falciparum Dd2-2D4 = test: P. falciparum asexual blood stage (ABS) growth assay, SYBR Green, 72 h, wild-type parasites; format: cell-based, Plasmodium falciparum; conditions: for EC50: Plasmodium falciparum
PfcProRS = molecular target: T1, PfcProRS (Plasmodium falciparum, UniProt Q8I5R7); format: binding; conditions: for Normalized response, dose-response replicates (SI Fig 14): replicates 1-3
T1 construct: made in house; host or cells: E. coli SoluBL-21
T1 sequence (Q8I5R7 249-746): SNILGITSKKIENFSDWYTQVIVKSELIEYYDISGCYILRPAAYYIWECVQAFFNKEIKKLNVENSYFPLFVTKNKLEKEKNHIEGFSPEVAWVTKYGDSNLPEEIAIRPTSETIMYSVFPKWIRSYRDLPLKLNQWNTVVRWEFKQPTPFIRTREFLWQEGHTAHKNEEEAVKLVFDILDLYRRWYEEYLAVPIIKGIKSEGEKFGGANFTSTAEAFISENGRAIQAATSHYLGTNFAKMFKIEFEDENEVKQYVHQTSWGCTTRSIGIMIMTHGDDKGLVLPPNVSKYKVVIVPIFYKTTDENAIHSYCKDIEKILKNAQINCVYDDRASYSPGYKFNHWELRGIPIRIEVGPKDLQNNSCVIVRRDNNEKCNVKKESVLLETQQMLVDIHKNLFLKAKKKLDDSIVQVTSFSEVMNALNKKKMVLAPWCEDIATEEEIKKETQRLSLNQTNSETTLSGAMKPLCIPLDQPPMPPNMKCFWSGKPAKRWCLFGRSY

[2] = tested on: halofuginone-induced P. falciparum (elevated proline homeostasis); test: P. falciparum ABS growth assay, SYBR Green, 72 h, halofuginone-induced parasites; format: cell-based, Plasmodium falciparum; conditions: Halofuginone-Induced (HFG-Induced)
Procedure, shortened: (§1)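 EC50 came from SYBR Green 1 fluorescence measured 72 h after dosing in triplicate dose-response. Dihydroartemisinin at 10 μM set full kill and untreated wells set full growth. Cultures of the Dd2 lines were seeded at 1% hematocrit and 1% parasitemia in Albumax-supplemented RPMI.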

HsProRS = HsProRS (Homo sapiens, UniProt P07814); test: TR-FRET ligand displacement assay with tracer MAT379 (CoraFluor-1-Halo and anti-His6 antibody formats); format: binding; parameters: made in house; host or cells: E. coli SoluBL-21; conditions: for Kd: 250 nM MAT379; for normalized TR-FRET signal (dose-response replicates): SI Fig 17a
HsProRS, sequence (P07814 996-1512): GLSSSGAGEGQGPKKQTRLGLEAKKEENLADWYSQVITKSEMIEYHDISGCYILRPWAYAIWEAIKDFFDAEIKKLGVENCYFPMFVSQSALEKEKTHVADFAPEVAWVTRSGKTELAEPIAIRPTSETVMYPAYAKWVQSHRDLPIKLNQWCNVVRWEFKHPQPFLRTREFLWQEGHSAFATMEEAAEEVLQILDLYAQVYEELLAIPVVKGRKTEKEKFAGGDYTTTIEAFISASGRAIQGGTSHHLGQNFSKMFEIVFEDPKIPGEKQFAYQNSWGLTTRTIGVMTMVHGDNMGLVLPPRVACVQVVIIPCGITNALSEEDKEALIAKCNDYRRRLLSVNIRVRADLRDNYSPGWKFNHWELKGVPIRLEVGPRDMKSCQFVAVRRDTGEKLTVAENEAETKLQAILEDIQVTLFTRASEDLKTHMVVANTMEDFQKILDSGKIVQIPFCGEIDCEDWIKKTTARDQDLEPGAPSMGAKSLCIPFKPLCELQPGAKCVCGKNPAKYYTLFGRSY

[3] = tested on: HFGR-I P. falciparum (elevated proline homeostasis and PfcProRS^L482H); test: P. falciparum ABS growth assay, SYBR Green, 72 h, HFGR-I parasites; format: cell-based, Plasmodium falciparum; conditions: HFGR-I
Procedure, shortened: as §1

[4] = Log[inhibitor] (M) -5.000, series r16-r27

Compound: C[C@H]1[C@@H](O)O[C@@H]2O[C@@]3(C)CC[C@H]4[C@H](C)CC[C@@H]1[C@@]24OO3 [Dihydroartemesinin (DHA)]
- Fold-change Resistance ([1]; S1 - Clone A8): 0.68 and 0.97
- Fold-change Resistance ([1]; S2 - Clone B9): 2.04
- Fold-change Resistance ([1]; S3 - Clone B3): 0.71 and 0.6
- Fold-change Resistance (P. falciparum Dd2-2D4; Dd2-2D4, independent experiments): 0.78 and 1.22 and 1

Compound: C[C@H]1[C@@H](O)O[C@@H]2O[C@@]3(C)CC[C@H]4[C@H](C)CC[C@@H]1[C@@]24OO3 [DHA, dihydroartemisinin, reference compound]
- EC50 ([1]; DD2, cell line S1 - Clone A8, read-out: EC50 [nM] mean): 3.4 nM
- EC50 ([1]; DD2, cell line S1 - bulk population, read-out: EC50 [nM] mean): 4.5 nM
- EC50 ([1]; DD2, cell line S2 - Clone A3, read-out: EC50 [nM] mean): 2 nM
- EC50 ([1]; DD2, cell line S2 - Clone B9, read-out: EC50 [nM] mean): 10.1 nM
- EC50 ([1]; DD2, cell line S2 - Clone C5, read-out: EC50 [nM] mean): 3.48 nM
- EC50 ([1]; DD2, cell line S2 - bulk population, read-out: EC50 [nM] mean): 3.55 nM
- EC50 ([1]; DD2, cell line S3 - Clone B3, read-out: EC50 [nM] mean): 3.51 nM
- EC50 ([1]; DD2, cell line S3 - Clone B7, read-out: EC50 [nM] mean): 3.12 nM
- EC50 ([1]; DD2, cell line S3 - bulk population, read-out: EC50 [nM] mean): 3.44 nM
- EC50 ([1]; DD2, read-out: EC50 [nM] mean, cell line S3 - Clone B2): 8.34 nM
- EC50 (P. falciparum Dd2-2D4; cell line Dd2-2D4 (parent), read-out: EC50 [nM] mean): 4.95 nM

Compound: CC(C)(C)OC(=O)N1CCC[C@H]1C(=O)NCC1CCN(C(=O)Nc2nccnc2C(=O)NC2Cc3ccccc3C2)CC1 [compound 32]
- Normalized response, dose-response replicates (SI Fig 14) (PfcProRS; Log[inhibitor] (M) -5.000): 8.11E-02 and -2.06E-02 and -4.64E-02
- Normalized response, dose-response replicates (SI Fig 14) (PfcProRS; Log[inhibitor] (M) -5.301): 3.54E-04 and -5.93E-02 and 6.94E-02
- Normalized response, dose-response replicates (SI Fig 14) (PfcProRS; Log[inhibitor] (M) -5.601): 6.67E-02 and 8.89E-02 and 6.64E-02
- Normalized response, dose-response replicates (SI Fig 14) (PfcProRS; Log[inhibitor] (M) -5.904): 2.31E-01 and 3.17E-01 and 2.64E-01
- Normalized response, dose-response replicates (SI Fig 14) (PfcProRS; Log[inhibitor] (M) -6.208): 3.63E-01 and 4.57E-01 and 4.26E-01
- Normalized response, dose-response replicates (SI Fig 14) (PfcProRS; Log[inhibitor] (M) -6.509): 7.41E-01 and 6.71E-01 and 7.68E-01
- Normalized response, dose-response replicates (SI Fig 14) (PfcProRS; Log[inhibitor] (M) -6.796): 9.02E-01 and 7.89E-01 and 8.70E-01
- Normalized response, dose-response replicates (SI Fig 14) (PfcProRS; Log[inhibitor] (M) -7.108): 8.53E-01 and 8.96E-01 and 8.71E-01
- Normalized response, dose-response replicates (SI Fig 14) (PfcProRS; Log[inhibitor] (M) -7.409): 8.49E-01 and 8.87E-01 and 9.83E-01
- Normalized response, dose-response replicates (SI Fig 14) (PfcProRS; Log[inhibitor] (M) -7.710): 9.08E-01 and 9.29E-01 and 9.85E-01
- Normalized response, dose-response replicates (SI Fig 14) (PfcProRS; Log[inhibitor] (M) -8.000): 9.86E-01 and 8.66E-01 and 9.79E-01
- Normalized response, dose-response replicates (SI Fig 14) (PfcProRS; Log[inhibitor] (M) -8.301): 1.11E+00 and 8.88E-01 and 9.05E-01
- Normalized response, dose-response replicates (SI Fig 14) (PfcProRS; Log[inhibitor] (M) -8.602): 9.30E-01 and 8.25E-01 and 1.02E+00
- Normalized response, dose-response replicates (SI Fig 14) (PfcProRS; Log[inhibitor] (M) -9.000): 8.77E-01 and 8.28E-01 and 9.46E-01
- Normalized response, dose-response replicates (SI Fig 14) (PfcProRS; Log[inhibitor] (M) -9.301): 8.47E-01 and 9.35E-01 and 9.98E-01
- PfcProRS -- best Kd (PfcProRS; SI Fig 16a, values on -log scale): 8.272
- EC50 (P. falciparum Dd2-2D4; DD2, SI Fig 16b, values on -log scale, read-out: ABS - Dd2-2D4 (converted)): 63.2 nM
- parasite growth, dose-response point [2, 4]: 56 and 59 and 61
- parasite growth, dose-response point ([2]; Log[inhibitor] (M) -5.408): 91 and 93
- parasite growth, dose-response point ([2]; Log[inhibitor] (M) -5.816): 97 and 101
- parasite growth, dose-response point ([2]; Log[inhibitor] (M) -6.222): 101 and 104
- parasite growth, dose-response point ([2]; Log[inhibitor] (M) -6.638): 105 and 99 and 109
- parasite growth, dose-response point ([2]; Log[inhibitor] (M) -7.046): 102 and 106
- parasite growth, dose-response point ([2]; Log[inhibitor] (M) -7.450): 96 and 98 and 97
- parasite growth, dose-response point ([2]; Log[inhibitor] (M) -7.854): 92 and 97 and 99
- parasite growth, dose-response point ([2]; Log[inhibitor] (M) -8.260): 102 and 96 and 100
- parasite growth, dose-response point ([2]; Log[inhibitor] (M) -8.699): 96 and 106 and 94
- parasite growth, dose-response point ([2]; Log[inhibitor] (M) -9.000): 100 and 96 and 98
- parasite growth, dose-response point ([2]; Log[inhibitor] (M) -9.488): 96 and 100 and 101
- Kd (HsProRS; HsProRS (KD [nM]) + proline, 100 μM proline): 270 nM
- Kd (HsProRS; HsProRS (KD [nM]) −, absence of substrates): 72.1 nM
- normalised signal, dose-response point (Fig 4d) (HsProRS; Log[inhibitor] (M) -5.000, series of 32): 2.12E-01 and 2.00E-01 and 2.05E-01
- normalised signal, dose-response point (Fig 4d) (HsProRS; Log[inhibitor] (M) -5.260): 3.41E-01 and 3.06E-01 and 3.25E-01
- normalised signal, dose-response point (Fig 4d) (HsProRS; Log[inhibitor] (M) -5.520): 5.51E-01 and 5.09E-01 and 5.11E-01
- normalised signal, dose-response point (Fig 4d) (HsProRS; Log[inhibitor] (M) -5.770): 5.87E-01 and 6.67E-01 and 6.60E-01
- normalised signal, dose-response point (Fig 4d) (HsProRS; Log[inhibitor] (M) -6.020): 8.17E-01 and 7.53E-01 and 7.81E-01
- normalised signal, dose-response point (Fig 4d) (HsProRS; Log[inhibitor] (M) -6.280): 8.69E-01 and 9.20E-01 and 9.33E-01
- normalised signal, dose-response point (Fig 4d) (HsProRS; Log[inhibitor] (M) -6.530): 9.20E-01 and 9.88E-01 and 9.42E-01
- normalised signal, dose-response point (Fig 4d) (HsProRS; Log[inhibitor] (M) -6.800): 9.40E-01 and 8.89E-01
- normalised signal, dose-response point (Fig 4d) (HsProRS; Log[inhibitor] (M) -7.060): 9.33E-01 and 9.82E-01 and 1.04E+00
- normalised signal, dose-response point (Fig 4d) (HsProRS; Log[inhibitor] (M) -7.320): 9.28E-01 and 1.05E+00 and 1.04E+00
- normalised signal, dose-response point (Fig 4d) (HsProRS; Log[inhibitor] (M) -7.550): 9.75E-01 and 9.78E-01 and 9.48E-01
- normalised signal, dose-response point (Fig 4d) (HsProRS; Log[inhibitor] (M) -7.800): 9.53E-01 and 9.20E-01 and 9.82E-01
- normalised signal, dose-response point (Fig 4d) (HsProRS; Log[inhibitor] (M) -8.100): 1.05E+00 and 1.02E+00 and 1.07E+00
- normalised signal, dose-response point (Fig 4d) (HsProRS; Log[inhibitor] (M) -8.400): 1.08E+00 and 1.05E+00 and 1.02E+00
- normalised signal, dose-response point (Fig 4d) (HsProRS; Log[inhibitor] (M) -8.590): 1.09E+00 and 1.06E+00 and 1.01E+00
- normalized TR-FRET signal (dose-response replicates) (HsProRS; Log[inhibitor] (M) -5.000): 2.39E-01 and 2.20E-01 and 1.87E-01
- normalized TR-FRET signal (dose-response replicates) (HsProRS; Log[inhibitor] (M) -5.301): 3.62E-01 and 3.47E-01 and 3.37E-01
- normalized TR-FRET signal (dose-response replicates) (HsProRS; Log[inhibitor] (M) -5.601): 5.14E-01 and 4.86E-01 and 5.28E-01
- normalized TR-FRET signal (dose-response replicates) (HsProRS; Log[inhibitor] (M) -5.904): 6.65E-01 and 6.61E-01 and 6.44E-01
- normalized TR-FRET signal (dose-response replicates) (HsProRS; Log[inhibitor] (M) -6.208): 7.43E-01 and 7.50E-01 and 7.76E-01
- normalized TR-FRET signal (dose-response replicates) (HsProRS; Log[inhibitor] (M) -6.509): 8.47E-01 and 8.09E-01 and 8.87E-01
- normalized TR-FRET signal (dose-response replicates) (HsProRS; Log[inhibitor] (M) -6.796): 8.64E-01 and 8.39E-01 and 8.67E-01
- normalized TR-FRET signal (dose-response replicates) (HsProRS; Log[inhibitor] (M) -7.108): 8.86E-01 and 8.93E-01 and 9.29E-01
- normalized TR-FRET signal (dose-response replicates) (HsProRS; Log[inhibitor] (M) -7.409): 9.16E-01 and 8.51E-01 and 8.90E-01
- normalized TR-FRET signal (dose-response replicates) (HsProRS; Log[inhibitor] (M) -7.710): 8.73E-01 and 8.93E-01 and 9.04E-01
- normalized TR-FRET signal (dose-response replicates) (HsProRS; Log[inhibitor] (M) -8.000): 8.95E-01 and 8.48E-01 and 9.51E-01
- normalized TR-FRET signal (dose-response replicates) (HsProRS; Log[inhibitor] (M) -8.301): 9.44E-01 and 8.99E-01 and 9.43E-01
- normalized TR-FRET signal (dose-response replicates) (HsProRS; Log[inhibitor] (M) -8.602): 9.47E-01 and 8.94E-01 and 9.08E-01
- normalized TR-FRET signal (dose-response replicates) (HsProRS; Log[inhibitor] (M) -9.000): 8.96E-01 and 9.17E-01 and 8.59E-01
- normalized TR-FRET signal (dose-response replicates) (HsProRS; Log[inhibitor] (M) -9.301): 8.96E-01 and 9.24E-01 and 9.14E-01
- parasite growth, dose-response point [3, 4]: 65 and 64 and 69
- parasite growth, dose-response point ([3]; Log[inhibitor] (M) -5.408): 103 and 102 and 96
- parasite growth, dose-response point ([3]; Log[inhibitor] (M) -5.816): 108 (2×) and 102
- parasite growth, dose-response point ([3]; Log[inhibitor] (M) -6.222): 105
- parasite growth, dose-response point ([3]; Log[inhibitor] (M) -6.638): 107 and 104 and 103
- parasite growth, dose-response point ([3]; Log[inhibitor] (M) -7.046): 101 and 105 and 99
- parasite growth, dose-response point ([3]; Log[inhibitor] (M) -7.450): 87 and 91 and 96
- parasite growth, dose-response point ([3]; Log[inhibitor] (M) -7.854): 87 and 93 and 83
- parasite growth, dose-response point ([3]; Log[inhibitor] (M) -8.260): 88 and 90 and 94
- parasite growth, dose-response point ([3]; Log[inhibitor] (M) -8.699): 93 and 91
- parasite growth, dose-response point ([3]; Log[inhibitor] (M) -9.000): 91 and 92 and 87
- parasite growth, dose-response point ([3]; Log[inhibitor] (M) -9.488): 92 and 82
